From patent US9789096B2, “Methods and compositions for selective and targeted cancer therapy” (Board of Regents of the University of Texas System, priority 2013, dated 2017)
Read-outs that look alike come from different tables or passages of the source.

Columns and labels:
Assay type in all cases: cell-based, human
HBEC30KT = assay: Cell viability (ATP, Cell Titer Glo, 4 days), HBEC30KT; details: Homo sapiens
Method: (§1) FIG. 6A. […] Cell viability is plotted vs. compound concentration. Compound was added to cells plated at 15% confluence in 96-well plates in RPMI-1640 media supplemented with 5% Fetal Bovine Serum and 2 mM L-Glutamine. After 4 days of incubation, ATP levels were measured using Cell Titer Glo (Promega). Data are presented as the average of 2 replicates ±SEM.
(§2) Selectivity may be measured by the half maximal inhibitory concentration (IC50), which, as used herein, is a measure of the effectiveness of a compound in killing cells. This quantitative measure indicates how much of a particular compound is needed to kill a particular cell population by half (e.g., as indicated by the amount of ATP). […] The IC50 can be determined by constructing a dose-response curve. The lower the IC50, the higher the potency, and the greater the difference between IC50 values for different cell lines (e.g., sensitive lines vs. insensitive lines, and sensitive lines vs. normal lines) the greater the selectivity. […]

H2122 = assay: Cell viability dose-response, H2122; details: Homo sapiens; for AC50: NCI-H2122, Table 8, 12-point dose-response starting at 50 micromolar
How it was run: (§3)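 Viability read as total ATP (Cell Titer Glo) following 4 days' compound exposure, with IC50 derived from dose-response curves. Duplicate 12-point series, top concentration 50 micromolar with 3-fold steps, on cells seeded at 15% confluence in RPMI-1640, 5% FBS, 2 mM L-glutamine.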

H1819 = assay: Cell viability dose-response, H1819; details: Homo sapiens; for AC50: NCI-H1819, Table 8, 12-point dose-response starting at 50 micromolar
How it was run: as §3

H2073 = assay: Cell viability dose-response, H2073; details: for AC50: NCI-H2073, Table 8, 12-point dose-response starting at 50 micromolar; for IC50: read-out: IC50 (uM) vs indicated non-small cell lung cancer cell line H2073
Method: as §1, §2
With this information, we synthesized and tested a series of small molecules derived in conception from the oxalamide and chromone scaffold including N-acyl ureas, as shown in Tables 6-8. Each compound was tested in a 12-point dose-response study starting at 50 micromolar and decreasing in 3-fold increments to sub-nanomolar concentrations, in duplicate. Additionally, one or more additional cell line was tested in the same way.

HCC44 = assay: Cell viability dose-response, HCC44; details: Homo sapiens, HCC44, Tables 3 and 4; read-out: IC50 (uM) vs indicated non-small cell lung cancer cell line HCC44
How it was run: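 Cells were plated at 15% confluence in RPMI-1640 with 5% FBS and 2 mM L-glutamine, then exposed to compound for 4 days. Viability was read as cellular ATP by CellTiter-Glo luminescence. Values are means of 2 replicates ±SEM, and IC50 comes from the dose-response curve.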

[1] = 12-point dose-response starting at 50 micromolar, 3-fold increments, in duplicate, read-out: toxicity data, HBEC30KT
[2] = NCI-H2122, 12-point dose-response starting at 50 micromolar, 3-fold increments, in duplicate, read-out: toxicity data, H2122
[3] = NCI-H1819, 12-point dose-response starting at 50 micromolar, 3-fold increments, in duplicate, read-out: toxicity data, H1819
[4] = Tables 3 and 4, read-out: HBEC30KT IC50
[5] = NCI-H2122, Tables 3 and 4, read-out: IC50 (uM) vs indicated non-small cell lung cancer cell line H2122
[6] = NCI-H1819, Tables 3 and 4, read-out: IC50 (uM) vs indicated non-small cell lung cancer cell line H1819

SMILES	IC50 (HBEC30KT; [1])	IC50 (H2122; [2])	IC50 (H1819; [3])	AC50 (H2073; Homo sapiens)	AC50 (H2122)	AC50 (H1819)	further results
O=C(NCCc1ccc(Cl)cc1)C(=O)Nc1ccc(Cl)cc1 [SW207008-1]	49.5 µM	≥ 49.5 µM	≥ 49.5 µM	–	–	–	–
COc1ccc(CCNC(=O)C(=O)Nc2ccc(C)c(Br)c2)cc1 [SW207014-1]	49.5 µM	0.89 µM	≥ 49.5 µM	–	–	–	–
O=c1c(Cc2cccc(O)c2)coc2cc(OCc3cnn(-c4ccccc4)c3)ccc12 [SW209381-1]	–	–	–	49.5 µM	7.03 µM	49.5 µM	–
CCOc1cccc(NC(=O)C(=O)NCCc2ccc(OC)cc2)c1 [SW207016-1]	49.5 µM	23.8 µM	≥ 49.5 µM	–	–	–	–
O=c1c(Cc2nccs2)coc2cc(OCc3cnn(-c4ccccc4)c3)ccc12 [SW209380-1]	–	–	–	17.7 µM	0.352 µM	21.2 µM	–
COc1ccc(CCNC(=O)C(=O)Nc2cccc(C#N)c2)cc1 [SW207021-1]	49.5 µM	0.407 µM	≥ 49.5 µM	–	–	–	–
O=C(Nc1ccc([N+](=O)[O-])cc1F)c1sc2ccccc2c1Cl [SW202552]	–	–	–	–	–	–	IC50 (HBEC30KT; [4]): 4950 µM; IC50 (H2122; [5]): 122 µM
O=c1c(Cc2ccccn2)coc2cc(OCc3cnn(-c4ccccc4)c3)ccc12 [SW209187-1]	–	–	–	49.5 µM	0.28 µM	49.5 µM	–
O=C(Nc1ccc(NC(=O)c2sc3ccccc3c2Cl)cc1)c1ccco1 [SW163400]	–	–	–	–	–	–	IC50 (HBEC30KT; [4]): 69.3 µM; IC50 (HCC44): 723 µM; IC50 (H2122; [5]): 0.897 µM
O=C(Nc1nc2cnccc2s1)c1ccccc1 [SW209562-1]	–	–	–	–	–	–	IC50 (H2073; Homo sapiens, NCI-H2073, Tables 3 and 4): 49.5 µM; IC50 (H2122; [5]): ≥ 49.5 µM; IC50 (H1819; [6]): ≥ 49.5 µM
C#CCc1coc2cc(OCc3cnn(-c4ccccc4)c3)ccc2c1=O [SW209021-1]	–	–	–	49.5 µM	0.846 µM	49.5 µM	–
COc1ccc2nc(NC(=O)CCc3ccccc3)sc2c1 [SW202751]	–	–	–	–	–	–	IC50 (HBEC30KT; [4]): 376 µM; IC50 (H1819; [6]): 995 µM
O=C(NCCc1ccc(Br)cc1)C(=O)Nc1ccc(Cl)cc1 [SW207005-1]	49.5 µM	≥ 49.5 µM	≥ 49.5 µM	–	–	–	–
O=c1c(Cc2ccncc2)coc2cc(OCc3cnn(-c4ccccc4)c3)ccc12 [SW209193-1]	–	–	–	49.5 µM	0.549 µM	49.5 µM	–
COc1ccc(CCNC(=O)C(=O)Nc2ccccc2Br)cc1 [SW207009-1]	49.5 µM	≥ 49.5 µM	≥ 49.5 µM	–	–	–	–
O=c1c(Cc2cccnc2)coc2cc(OCc3cnn(-c4ccccc4)c3)ccc12 [SW209203-1]	–	–	–	44 µM	3.17 µM	49.5 µM	–
COc1ccc(CCNC(=O)C(=O)NCc2ccc(OC)cc2)cc1 [SW207018-1]	49.5 µM	≥ 49.5 µM	≥ 49.5 µM	–	–	–	–
O=c1c(Cc2ccc(Cl)nc2)coc2cc(OCc3cnn(-c4ccccc4)c3)ccc12 [SW209382-1]	–	–	–	0.244 µM	0.325 µM	49.5 µM	–
COc1ccc(CCNC(=O)C(=O)Nc2ccc(Cl)cc2C(F)(F)F)cc1 [SW207013-1]	49.5 µM	≥ 49.5 µM	≥ 49.5 µM	–	–	–	–
C#CCOc1ccc(C(=O)c2ccc(C(=O)Nc3nc4ccc(OC)cc4s3)cc2)cc1 [SW209049-1]	–	–	–	–	–	–	IC50 (H2073; Tables 3 and 4): 81 µM; IC50 (H2122; [5]): 0.131 µM; IC50 (H1819; [6]): 21 µM
O=C1/C(=C/c2ccccc2F)COc2cc(OCc3cnn(-c4ccccc4)c3)ccc21 [SW209196-1]	–	–	–	49.5 µM	0.827 µM	41 µM	–
C=CCc1coc2cc(OCc3cnn(-c4ccccc4)c3)ccc2c1=O [SW209022-1]	–	–	–	49.5 µM	0.323 µM	47.1 µM	–
COc1ncccc1Cc1coc2cc(OCc3cnn(-c4ccccc4)c3)ccc2c1=O [SW209377-1]	–	–	–	0.204 µM	0.232 µM	49.5 µM	–
O=C1/C(=C/c2ccccc2C(F)(F)F)COc2cc(OCc3cnn(-c4ccccc4)c3)ccc21 [SW209195-1]	–	–	–	0.39 µM	0.085 µM	49.5 µM	–
